Results reported in ChEMBL document CHEMBL3045416, “Synthesis and biological evaluation of new curcumin derivatives as antioxidant and antitumor agents” (Med Chem Res, 2013).

Tests used:
[1] = Antioxidant activity assessed as inhibition of ABTS radical production at 1 mg/ml; assay type: functional
[2] = Induction of Homo sapiens (human) RBC haemolysis at 2 ug/ml by spectrophotometric anlaysis; assay type: cell-based, Erythrocyte; details: red blood cells, read-out: Activity
[3] = test system: HepG2; assay: Cytotoxicity against Homo sapiens (human) HepG2 cells assessed as cell viability at 20 ug/ml by trypan blue assay; assay type: functional; details: read-out: Activity
[4] = test system: MCF7; assay: Cytotoxicity against Homo sapiens (human) MCF7 cells assessed as cell viability at 20 ug/ml by trypan blue assay; assay type: functional; details: read-out: Activity
[5] = test system: Vero; assay: Cytotoxicity against Chlorocebus aethiops (African green monkey) Vero cells assessed as cell viability at 20 ug/ml by trypan blue assay; assay type: functional; details: Chlorocebus sabaeus, read-out: Activity
[6] = test system: WI-38; assay: Cytotoxicity against Homo sapiens (human) WI38 cells assessed as cell viability at 20 ug/ml by trypan blue assay; assay type: functional; details: read-out: Activity
[7] = Antioxidant activity assessed as inhibition of ABTS radical production at 2 mM; assay type: functional
[8] = Antihaemolysis activity in Homo sapiens (human) RBC assessed as inhibition of ABTS-induced haemolysis at 20 ug/ml incubated for 30 min prior to ABTS-challenge by spectrophotometric analysis; assay type: functional; details: Erythrocyte

SMILES | inhibition [1] | hemolysis at 2 ug/ml [2] | viability at 20 µg/mL [3] | viability at 20 µg/mL [4] | viability at 20 µg/mL [5] | viability at 20 µg/mL [6] | inhibition [7] | inhibition at 20 µg/mL [8]
N#CC1=C(N)OC2=C(CCC/C2=C\c2ccc(Cl)cc2)C1c1ccc(Cl)cc1 (configuration not stated) | 1.55% |  |  |  |  |  |  | 
COc1ccc(/C=C2\CCCC3C2=NN(c2ccc(Br)cc2)C3c2ccc(OC)c(OC)c2)cc1OC (configuration not stated) | 0.19% | 100% |  |  |  |  |  | 
O=C1/C(=C/c2ccc(Cl)cc2)CCC/C1=C\c1ccc(Cl)cc1 | 0.58% | 100% |  |  |  |  |  | 
CC(C)(C(=O)/C=C/c1ccc(O)cc1)C(=O)/C=C/c1ccc(O)cc1 | 28.7% | 100% | 57% | 64% | 82% | 88% |  | 
COc1ccc(OC)c(/C=C2\CCCCC3C2=NN(c2ccc(Br)cc2)C3c2cc(OC)ccc2OC)c1 (configuration not stated) |  | 100% |  |  |  |  |  | 
COc1cc(/C=C2\CCC/C(=C\c3ccc(O)c(OC)c3)C2=O)ccc1O [CYCLOVALONE] | 74.2% |  | 28% | 32% | 69% | 58% |  | 
COc1ccc(/C=C2\CCCC/C(=C\c3ccc(OC)cc3)C2=O)cc1 | 1.74% | 100% |  |  |  |  |  | 
COc1ccc(/C=C2\CCCC3C2=NN(c2ccc(Br)cc2)C3c2ccc(OC)cc2)cc1 (configuration not stated) | 5.03% | 100% |  |  |  |  |  | 
N#CC1=C(N)OC2=C(CCC/C2=C\c2ccccc2)C1c1ccccc1 (configuration not stated) | 0.19% |  |  |  |  |  |  | 
COc1ccc(OC)c(/C=C2\CCCC3C2=NN(c2ccc(Br)cc2)C3c2cc(OC)ccc2OC)c1 (configuration not stated) | 0.77% | 100% |  |  |  |  |  | 
COc1ccc(OC)c(/C=C2\CCCC/C(=C\c3cc(OC)ccc3OC)C2=O)c1 | 5.03% | 100% |  |  |  |  |  | 
COc1ccc(/C=C2\CCCC/C(=C\c3ccc(OC)c(OC)c3)C2=O)cc1OC | 0.77% | 100% |  |  |  |  |  | 
O=c1[nH]cc(F)c(=O)[nH]1 [FLUOROURACIL] |  |  | 0% | 0% | 0% | 0% |  | 
CCOc1ccc(/C=C/C(=O)C(CC)(CC)C(=O)/C=C/c2ccc(OCC)c(OC)c2)cc1OC | 26.4% |  | 78% | 94% | 88% | 82% |  | 
N#CC1=C(N)OC2=C(CCC/C2=C\c2ccc(O)cc2)C1c1ccc(O)cc1 (configuration not stated) | 16.7% | 100% | 78% | 82% | 83% | 79% |  | 
COc1ccc(/C=C2\CCCC3=C2OC(N)=C(C#N)C3c2ccc(OC)c(OC)c2)cc1OC (configuration not stated) | 16.9% | 100% | 19% | 21% | 65% | 12% |  | 
COc1ccc(/C=C2\CCCCC3C2=NN(c2ccc(Br)cc2)C3c2ccc(OC)cc2)cc1 (configuration not stated) |  | 100% |  |  |  |  |  | 
O=C1/C(=C/c2ccccc2)CCC/C1=C\c1ccccc1 | 1.93% |  |  |  |  |  |  | 
CC(C)(C(=O)/C=C/c1ccc(Cl)cc1)C(=O)/C=C/c1ccc(Cl)cc1 | 2.32% | 100% |  |  |  |  |  | 
COc1ccc(/C=C2\CCCC3=C2OC(N)=C(C#N)C3c2ccc(OC)cc2)cc1 (configuration not stated) | 0.38% |  |  |  |  |  |  | 

SMILES | inhibition [1] | hemolysis at 2 ug/ml [2] | viability at 20 µg/mL [3] | viability at 20 µg/mL [4] | viability at 20 µg/mL [5] | viability at 20 µg/mL [6] | inhibition [7] | inhibition at 20 µg/mL [8]
COc1ccc(/C=C2\CCCCC3C2=NN(c2ccc(Br)cc2)C3c2ccc(OC)c(OC)c2)cc1OC (configuration not stated) |  | 100% |  |  |  |  |  | 
COc1ccc(OC)c(/C=C2\CCCC3C2=NNC3c2cc(OC)ccc2OC)c1 (configuration not stated) | 25.6% | 100% | 78% | 82% | 67% | 100% |  | 
Oc1ccc(/C=C2\CCCC3C2=NNC3c2ccc(O)cc2)cc1 (configuration not stated) | 54.5% |  | 89% | 75% | 76% | 88% |  | 
COc1cc(/C=C/C(=O)C(C)(C)C(=O)/C=C/c2ccc(O)c(OC)c2)ccc1O | 52.9% |  | 47% | 55% | 82% | 78% |  | 
COc1ccc(/C=C2\CCC/C(=C\c3ccc(OC)cc3)C2=O)cc1 | 1.35% | 100% |  |  |  |  |  | 
CC(C)(C(=O)/C=C/c1ccccc1)C(=O)/C=C/c1ccccc1 | 4.84% | 100% |  |  |  |  |  | 
COc1ccc(OC)c(/C=C2\CCCC3=C2OC(N)=C(C#N)C3c2cc(OC)ccc2OC)c1 (configuration not stated) | 0.38% |  |  |  |  |  |  | 
COc1ccc(/C=C2\CCC/C(=C\c3ccc(OC)c(OC)c3)C2=O)cc1OC | 0% | 100% |  |  |  |  |  | 
Brc1ccc(N2N=C3/C(=C/c4ccccc4)CCCC3C2c2ccccc2)cc1 (configuration not stated) | 1.74% | 100% |  |  |  |  |  | 
COc1cc(/C=C2\CCCC3C2=NNC3c2ccc(O)c(OC)c2)ccc1O (configuration not stated) | 76.7% |  | 21% | 19% | 12% | 65% |  | 
COc1ccc(OC)c(/C=C2\CCC/C(=C\c3cc(OC)ccc3OC)C2=O)c1 | 1.16% | 100% |  |  |  |  |  | 
O=C1O[C@H]([C@@H](O)CO)C(O)=C1O [ASCORBIC ACID] |  |  |  |  |  |  | 80.8% | 17.6%
COc1ccc(OC)c(/C=C/C(=O)C(C)(C)C(=O)/C=C/c2cc(OC)ccc2OC)c1 | 3.68% | 100% | 84% | 79% | 74% | 80% |  | 
O=C1/C(=C/c2ccc(O)cc2)CCC/C1=C\c1ccc(O)cc1 | 9.49% | 100% | 88% | 74% | 84% | 77% |  | 
COc1ccc(/C=C/C(=O)C(C)(C)C(=O)/C=C/c2ccc(OC)cc2)cc1 | 7.75% | 100% |  |  |  |  |  | 
COc1cc(/C=C/C(=O)CC(=O)/C=C/c2ccc(O)c(OC)c2)ccc1O [CURCUMIN] | 87.6% |  | 18% | 19% | 24% | 51% |  | 
COc1cc(/C=C2\CCCC3=C2OC(N)=C(C#N)C3c2ccc(O)c(OC)c2)ccc1O (configuration not stated) | 57.8% | 100% | 81% | 79% | 82% | 84% |  | 
Clc1ccc(/C=C2\CCCC3C2=NN(c2ccc(Br)cc2)C3c2ccc(Cl)cc2)cc1 (configuration not stated) | 2.9% | 100% |  |  |  |  |  | 
COc1ccc(/C=C/C(=O)C(C)(C)C(=O)/C=C/c2ccc(OC)c(OC)c2)cc1OC | 12.6% | 100% | 78% | 87% | 89% | 75% |  | 
